{"source": "patent US6489469B1", "about": "“Method for storing or transporting erythritol solution” (Nikken Chemicals Co., Ltd., priority 1999, dated 2002)", "tested_on": "Aspergillus flavus IFO 6343", "test": "Viable Count of Aspergillus flavus IFO 6343 in Erythritol Solution", "format": "cell-based", "method": "Erythritol solutions of respective concentrations in the range of from 30 to 60% were prepared. To these were inoculated Staphylococcus aureus IFO 13276, Bacillus subtilis IFO 3134, and Escherichia coli IFO 3972 as bacteria, Candida albicans IFO 1549 and Saccharomyces cerevisiae ATCC 9763 as yeasts, Aspergillus niger IFO 6342, Aspergillus flavus IFO 6343, and Penicillium funiculosum IFO 6345 as fungi, respectively, in a population (concentration) of 10,000 cells/mL or more. After the inoculation, the solutions were stored at 30, 37, 45, 50, or 60° C., respectively, for 56 days and the number of viable cell was determined daily. The determination of the number of viable cell was performed by a method of coating 0.1 mL of appropriately diluted sample cultivation on an agar plate and cultivating and counting the number of viable cell (the number of colony) that grew after the cultivation.", "data": [{"smiles": "OC[C@@H](O)[C@@H](O)CO", "note": "[Erythritol Solution, erythritol]", "values": [{"measurement": "The Number of Viable Cell", "setting": "45° C., 30% w/w, Day 0", "result": "≥ 10000", "unit": "cells/mL"}, {"measurement": "The Number of Viable Cell", "setting": "45° C., 30% w/w, Day 3", "result": "≥ 10000", "unit": "cells/mL"}, {"measurement": "The Number of Viable Cell", "setting": "45° C., 30% w/w, Day 7", "result": "≥ 10000", "unit": "cells/mL"}, {"measurement": "The Number of Viable Cell", "setting": "45° C., 30% w/w, Day 14", "result": "≥ 10000", "unit": "cells/mL"}, {"measurement": "The Number of Viable Cell", "setting": "45° C., 30% w/w, Day 28", "result": 0, "unit": "cells/mL"}, {"measurement": "The Number of Viable Cell", "setting": "45° C., 30% w/w, Day 56", "result": 0, "unit": "cells/mL"}, {"measurement": "The Number of Viable Cell", "setting": "45° C., 40% w/w, Day 0", "result": "≥ 10000", "unit": "cells/mL"}, {"measurement": "The Number of Viable Cell", "setting": "45° C., 40% w/w, Day 3", "result": "≥ 10000", "unit": "cells/mL"}, {"measurement": "The Number of Viable Cell", "setting": "45° C., 40% w/w, Day 7", "result": "≥ 10000", "unit": "cells/mL"}, {"measurement": "The Number of Viable Cell", "setting": "45° C., 40% w/w, Day 14", "result": "≥ 10000", "unit": "cells/mL"}, {"measurement": "The Number of Viable Cell", "setting": "45° C., 40% w/w, Day 28", "result": 0, "unit": "cells/mL"}, {"measurement": "The Number of Viable Cell", "setting": "45° C., 40% w/w, Day 56", "result": 0, "unit": "cells/mL"}, {"measurement": "The Number of Viable Cell", "setting": "45° C., 50% w/w, Day 0", "result": "≥ 10000", "unit": "cells/mL"}, {"measurement": "The Number of Viable Cell", "setting": "45° C., 50% w/w, Day 3", "result": "≥ 10000", "unit": "cells/mL"}, {"measurement": "The Number of Viable Cell", "setting": "45° C., 50% w/w, Day 7", "result": "≥ 10000", "unit": "cells/mL"}, {"measurement": "The Number of Viable Cell", "setting": "45° C., 50% w/w, Day 14", "result": 0, "unit": "cells/mL"}, {"measurement": "The Number of Viable Cell", "setting": "45° C., 50% w/w, Day 28", "result": 0, "unit": "cells/mL"}, {"measurement": "The Number of Viable Cell", "setting": "45° C., 50% w/w, Day 56", "result": 0, "unit": "cells/mL"}, {"measurement": "The Number of Viable Cell", "setting": "50° C., 30% w/w, Day 0", "result": "≥ 10000", "unit": "cells/mL"}, {"measurement": "The Number of Viable Cell", "setting": "50° C., 30% w/w, Day 3", "result": 0, "unit": "cells/mL"}, {"measurement": "The Number of Viable Cell", "setting": "50° C., 30% w/w, Day 7", "result": 0, "unit": "cells/mL"}, {"measurement": "The Number of Viable Cell", "setting": "50° C., 30% w/w, Day 14", "result": 0, "unit": "cells/mL"}, {"measurement": "The Number of Viable Cell", "setting": "50° C., 30% w/w, Day 28", "result": 0, "unit": "cells/mL"}, {"measurement": "The Number of Viable Cell", "setting": "50° C., 30% w/w, Day 56", "result": 0, "unit": "cells/mL"}, {"measurement": "The Number of Viable Cell", "setting": "50° C., 40% w/w, Day 0", "result": "≥ 10000", "unit": "cells/mL"}, {"measurement": "The Number of Viable Cell", "setting": "50° C., 40% w/w, Day 3", "result": 0, "unit": "cells/mL"}, {"measurement": "The Number of Viable Cell", "setting": "50° C., 40% w/w, Day 7", "result": 0, "unit": "cells/mL"}, {"measurement": "The Number of Viable Cell", "setting": "50° C., 40% w/w, Day 14", "result": 0, "unit": "cells/mL"}, {"measurement": "The Number of Viable Cell", "setting": "50° C., 40% w/w, Day 28", "result": 0, "unit": "cells/mL"}, {"measurement": "The Number of Viable Cell", "setting": "50° C., 40% w/w, Day 56", "result": 0, "unit": "cells/mL"}, {"measurement": "The Number of Viable Cell", "setting": "50° C., 50% w/w, Day 0", "result": "≥ 10000", "unit": "cells/mL"}, {"measurement": "The Number of Viable Cell", "setting": "50° C., 50% w/w, Day 3", "result": 0, "unit": "cells/mL"}, {"measurement": "The Number of Viable Cell", "setting": "50° C., 50% w/w, Day 7", "result": 0, "unit": "cells/mL"}, {"measurement": "The Number of Viable Cell", "setting": "50° C., 50% w/w, Day 14", "result": 0, "unit": "cells/mL"}, {"measurement": "The Number of Viable Cell", "setting": "50° C., 50% w/w, Day 28", "result": 0, "unit": "cells/mL"}, {"measurement": "The Number of Viable Cell", "setting": "50° C., 50% w/w, Day 56", "result": 0, "unit": "cells/mL"}, {"measurement": "growth of the microbes", "setting": "temperature of 50° C. or more", "result": "prevented from growing"}, {"measurement": "time after which microbes died", "setting": "temperature of 50° C. or more", "result": 3, "unit": "days"}]}]}
